What was measured:
Jurkat cells [1] = details: for Effect of Ca2+ channel inhibitor on cell death induced by 4 / Effect of Ca2+ channel inhibitor on cell death induced by celastrol: inhibitor 1 h (2-APB 50 μM, RuRed 10 μM, ER-000444793 10 μM); for Effect of Ca2+ channel inhibitor on cell death induced by 4: then 4 5 μM 3 h, microscopy and MTT; for Effect of Ca2+ channel inhibitor on cell death induced by celastrol: then celastrol 1 μM 12 h; for Effect of Ca2+ channel inhibitor on cell death induced by celastrol / Effect of PCD inhibitor on cell death induced by CGP37157 / Effect of GTPase inhibitor on cytotoxicity by 4 / Effect of GTPase inhibitor on cytotoxicity by CGP37157: MTT; for Effect of PCD inhibitor on cell death induced by CGP37157: Z-VAD-fmk 30 μM, Nec-1 30 μM, 3-MA 5 mM, CGP37157 100 µM, 12 h, three independent experiments; for Effect of GTPase inhibitor on cytotoxicity by 4 / Effect of GTPase inhibitor on cytotoxicity by CGP37157: inhibitor 1 h (dynasore, Mdivi-1 10–30 μM, CID1067700 1–10 μM); for Effect of GTPase inhibitor on cytotoxicity by 4: then 4 5 μM 1 or 3 h; for Effect of GTPase inhibitor on cytotoxicity by CGP37157: then CGP37157 100 μM 12 h
[2] = system: MFN1- and/or MFN2-KD Jurkat cells; test: MTT assay of MFN1- and/or MFN2-KD Jurkat cells; format: cell-based; details: siRNA 10 nM, celastrol 1 µM, 12 h, three independent experiments
Procedure: The roles of MFNs in the cell death induced by 4 and CGP37157 were examined by using small interfering RNA (siRNA) for MFN1 and MFN2 to knock down (KD) these proteins. […] The cytotoxicity of 4 and CGP37157 against MFN1- and/or MFN2-KD Jurkat cells was evaluated by MTT assays. […] The effect of a negative control siRNA (NCsiRNA) on the expression levels of MFNs and the cell viability of Jurkat cells was negligible, implying that MFNs are […] to the paraptosis induced by 4 and CGP37157. It should be noted that the treatment with siRNA at 5 nM for 72 h was toxic against Jurkat cells in the presence of 4 and CGP37157, although the efficiency of knockdown of these proteins by siRNA could be improved by increasing the incubation time, as shown in Figure S11.
To a solution of transfection reagent (INTERFERin, 5 μL) in OPTI-MEM (0.3 mL) in a 1.5 mL Eppendorf tube was added siRNA (10 μM, 1 or 2 μL) in H2O, and the resulting solution was allowed to stand for 15 min at room temperature. The resulting solution was then added to Jurkat cells (2.0 × 10^5 cells/mL, 1.5 mL) in 10% FBS/RPMI 1640 medium that had been seeded on a 12-well plate and incubated overnight at 37 °C under 5% CO2 (the final concentration of siRNA was 5 or 10 nM), and the resulting solution was incubated for 48 or 72 h at 37 °C under 5% CO2. The cells were collected by centrifugation (2000 rpm, 3 min, 4 °C), and the expression levels of MFNs were evaluated by Western blot analysis as described above. The cytotoxicity of 4 (3 or 5 μM), CGP37157 (50 or 100 μM), and celastrol (1 μM) against MFNs-KD Jurkat cells was evaluated by MTT assays as described above.

mitofusin 2 (MFN2) = test: Western blot analysis of MFN2 in Jurkat cells; format: cell-based; details: for MFN2 band intensity relative to absence of compound: Figure S8C, 24 h
Procedure: (§1) In a 1.5 mL Eppendorf tube, Jurkat cells (1.0 × 10^6 cells) were incubated in the presence of 4 ([…]), CGP37157 (100 μM for 0–24 h or 0–100 μM for 12 h), and celastrol (0–10 μM for 24 h or 1 μM for 0–24 h) at 37 °C under 5% CO2. After the cells had been washed twice with PBS, the proteins were extracted by using RIPA buffer (Nacalai Tesque) and quantified using a Pierce BCA Protein Assay Kit (Thermo Scientific). Proteins (7.5 μg/well) for MFNs and DRP1 and proteins (5.0 μg/well) for GAPDH were used for sodium dodecyl sulfate–polyacrylamide gel electrophoresis (SDS–PAGE) (7.5% for MFNs and DRP1 and 10% for GAPDH) (Bio-Rad). After SDS–PAGE, the proteins were transferred to a polyvinylidene fluoride membrane (Merck Millipore) by using a semi dry blotter (Bio-Rad). The membrane was blocked with Blocking One solution (Nacalai Tesque) for 30 min at room temperature. After being blocked, the membrane was washed three times with 1× TBST and treated with primary antibodies overnight (at a dilution of 1/1000 for MFNs and DRP1 or 1/2000 for GAPDH) in a signal enhancer HIKARI-solution A (Nacalai Tesque). The membrane was washed three times with 1× TBST and treated with the anti-mouse or anti-rabbit IgG HRP-conjugated secondary antibody (at a dilution of 1/4000 for MFNs and DRP1 or 1/10000 for GAPDH) in 1× TBST for 60 min at room temperature. The protein signal was spotted with a Chemi-Lumi One Ultra solution (Nacalai Tesque) using the ChemiDoc MP system (Bio-Rad). […]

[3] = system: dynamin-related protein 1 (DRP1); test: Western blot analysis of DRP1 in Jurkat cells; format: cell-based; details: for DRP1 band intensity relative to absence of compound: Figure S8C, 24 h
Procedure: In a 1.5 mL Eppendorf tube, Jurkat cells (1.0 × 10^6 cells) were incubated in the presence of 4 ([…]), CGP37157 (100 μM for 0–24 h or 0–100 μM for 12 h), and celastrol (0–10 μM for 24 h or 1 μM for 0–24 h) at 37 °C under 5% CO2. After the cells had been washed twice with PBS, the proteins were extracted by using RIPA buffer (Nacalai Tesque) and quantified using a Pierce BCA Protein Assay Kit (Thermo Scientific). Proteins (7.5 μg/well) for MFNs and DRP1 and proteins (5.0 μg/well) for GAPDH were used for sodium dodecyl sulfate–polyacrylamide gel electrophoresis (SDS–PAGE) (7.5% for MFNs and DRP1 and 10% for GAPDH) (Bio-Rad). After SDS–PAGE, the proteins were transferred to a polyvinylidene fluoride membrane (Merck Millipore) by using a semi dry blotter (Bio-Rad). The membrane was blocked with Blocking One solution (Nacalai Tesque) for 30 min at room temperature. After being blocked, the membrane was washed three times with 1× TBST and treated with primary antibodies overnight (at a dilution of 1/1000 for MFNs and DRP1 or 1/2000 for GAPDH) in a signal enhancer HIKARI-solution A (Nacalai Tesque). The membrane was washed three times with 1× TBST and treated with the anti-mouse or anti-rabbit IgG HRP-conjugated secondary antibody (at a dilution of 1/4000 for MFNs and DRP1 or 1/10000 for GAPDH) in 1× TBST for 60 min at room temperature. The protein signal was spotted with a Chemi-Lumi One Ultra solution (Nacalai Tesque) using the ChemiDoc MP system (Bio-Rad).

mitofusin 1 (MFN1) = test: Western blot analysis of MFN1 in Jurkat cells; format: cell-based; details: for MFN1 band intensity relative to absence of compound: Figure S8C, 24 h
Procedure: as §1

Jurkat cells [4] = test: TEM analysis of cytoplasmic vacuolization; format: cell-based; details: celastrol 1 μM, 24 h
Procedure: The morphological changes in Jurkat cells induced by CGP37157 (Figure 3B) were similar to those induced by 4 (Figure 1B) and confirmed in detail by TEM (transmission electron microscopy). Jurkat cells were treated with CGP37157 (100 μM) for 12 h, prefixed with glutaraldehyde and postfixed with osmium tetroxide (OsO4), and included in Poly 812 resin. The resulting samples were sliced and then observed by TEM. […] Similar TEM images were reported with respect to paraptosis-inducing natural compounds by some research groups: (i) paraptosis in MDA-MB 435S cells,[17] HeLa cells,[18] and Jurkat cells (Figure 4d and in our previous publications)[56]−[58] induced by celastrol, (ii) paraptosis in HeLa cells induced by 8-p-hydroxybenzoyl tovarol,[23] and (iii) paraptosis in A2780 cells and SKOV-3 cells induced by morusin.[22] Therefore, we believe that Jurkat cells undergo vacuolization in the paraptotic processes induced by 4 and CGP37157, as well as celastrol.
In a 1.5 mL Eppendorf tube, Jurkat cells (3.0 × 10^6 cells) were incubated with 4 (5 μM for 3 h), CGP37157 (100 μM for 12 h), and celastrol (1 μM for 24 h) in 10% FBS/RPMI 1640 medium at 37 °C under 5% CO2. After centrifugation (2000 rpm, 3 min, 4 °C), the cells were washed twice with PBS, prefixed with glutaraldehyde (2.5%) at 4 °C for 40 min, and then washed twice with PBS. Osmium tetroxide (1%) was used for postfixation, and the solution was incubated at 4 °C for 30 min. The cells were washed with PBS, included in an agarose gel, and dehydrated by using 50–100% and anhydrous EtOH. The cells were embedded into Poly 812 resin (Nisshin EM Co. Ltd.) at 60 °C for 3 days. The resin was sliced with a glass knife (150 nm thickness) on an ultramicrotome (EM UC6, Leica), and the samples were stained with EM stainer (Nisshin EM Co. Ltd.) and observed on TEM instrument (H-7650, Hitachi) with electron irradiation at 100 kV.

Jurkat cells [5] = test: Mitochondria-ER membrane fusion, co-staining with MitoTracker Green and ER-Tracker Red; format: cell-based; details: celastrol 1 μM, 12 h
Procedure: To verify this hypothesis, mitochondria and the ER were stained with both MitoTracker Green and ER-Tracker Red in the presence of 4, CGP37157, and celastrol (Figure 8). Jurkat cells were stained with MitoTracker Green (0.5 μM) and ER-Tracker Red (1 μM) and then treated with 4 (5 μM) for 10–30 min (time-dependent microscopic images are presented in Figure S5). […] With regard to CGP37157 and celastrol, Jurkat cells were stained with MitoTracker Green (0.5 μM) and ER-Tracker Red (1 μM) and then treated with CGP37157 (100 μM) and celastrol (1 μM) for 1–24 h (Figure 8 and Figure S5).
In a 1.5 mL Eppendorf tube, Jurkat cells (2.0 × 10^5 cells) were stained with MitoTracker Green (0.5 μM) for 1 h at 37 °C under 5% CO2 and then ER-Tracker Red (1 μM) for 1 h at 37 °C under 5% CO2 in 10% FBS/RPMI 1640 medium (100 μL). After being washed with PBS, the cells were treated with 4 (5 μM) in 10% FBS/RPMI 1640 medium (100 μL) for 0–30 min at 37 °C under 5% CO2. For CGP37157 and celastrol, Jurkat cells were treated with CGP37157 (100 μM) or celastrol (1 μM) in 10% FBS/RPMI 1640 medium (100 μL) for 0–24 h, after which the cells were stained with MitoTracker Green (0.5 μM) for 1 h at 37 °C under 5% CO2 and then ER-Tracker Red (1 μM) for 1 h at 37 °C under 5% CO2 in PBS. The cells were washed with PBS and observed by confocal microscopy (Fluoview, FV-1000, Olympus) using a Greiner CELLview dish (35 mm × 10 mm). Excitation at 473 nm and emission from 485 to 545 nm were used for MitoTracker Green. Excitation at 559 nm and emission from 570 to 620 nm were used for ER-Tracker Red. The exposure time was 20 μs/pixel.

[6] = celastrol 1 μM 0–24 h or 0–10 μM 24 h

`NCCOB(c1ccccc1)c1ccccc1` [2-APB, 2-Aminoethoxydiphenyl borate] was tested, and the “Effect of Ca2+ channel inhibitor on cell death induced by 4” value (shortened to “Effect of Ca2+ channel inhibitor … by 4”) (Jurkat cells [1]) was “negligible inhibitory effects” and the “Effect of Ca2+ channel inhibitor on cell death induced by celastrol” value (Jurkat cells [1]) was “negligible inhibitory effects”.

`Cn1cnc(N)c2ncnc1-2` [3-methyladenine] was tested, and the “Effect of PCD inhibitor on cell death induced by CGP37157” value (“Effect of PCD inhibitor” for short) (Jurkat cells [1]) was “negligible inhibition”.

In the case of `CC1(C)Cc2c(sc(NC(=S)NC(=O)c3ccccc3)c2C(=O)O)CO1` [CID1067700], the “Effect of GTPase inhibitor on cytotoxicity by 4” value (Jurkat cells [1]) is reported as “negligible effect” and the “Effect of GTPase inhibitor on cytotoxicity by CGP37157” value (Jurkat cells [1]) is reported as “negligible effect”.

With `O=C(Nc1ccccc1Cc1ccccc1)c1cc(=O)[nH]c2ccccc12` [ER-000444793] the “Effect of Ca2+ channel inhibitor … by 4” value (Jurkat cells [1]) was “negligible inhibitory effects” and the “Effect of Ca2+ channel inhibitor on cell death induced by celastrol” value (Jurkat cells [1]) was “negligible inhibitory effects”.

In the case of `COc1cc(-n2c(=S)[nH]c3ccccc3c2=O)c(Cl)cc1Cl` [Mdivi-1], the “Effect of GTPase inhibitor on cytotoxicity by 4” value (Jurkat cells [1]) is reported as “negligible effect” and the “Effect of GTPase inhibitor on cytotoxicity by CGP37157” value (Jurkat cells [1]) is reported as “negligible effect”.

`N.N.N.N.N.N.N.N.N.N.N.N.N.N.[Cl-].[Cl-].[Cl-].[Cl-].[Cl-].[Cl-].[O-2].[O-2].[Ru+3].[Ru+3].[Ru+4]` [RuRed, ruthenium red] was tested, and the “Effect of Ca2+ channel inhibitor … by 4” value (Jurkat cells [1]) was “negligible inhibitory effects” and the “Effect of Ca2+ channel inhibitor on cell death induced by celastrol” value (Jurkat cells [1]) was “negligible inhibitory effects”.

`CC1=C(O)C(=O)C=C2C1=CC=C1[C@@]2(C)CC[C@@]2(C)[C@@H]3C[C@](C)(C(=O)O)CC[C@]3(C)CC[C@]12C` [celastrol] was tested, and the “Effect of knockdown of MFNs on cell death induced by the compound” value [2] was “negligible effect”, the “MFN2 band intensity relative to absence of compound” value (mitofusin 2 (MFN2); celastrol 1 µM) was 0.29 and the “MFN2 band intensity relative to absence of compound” value (mitofusin 2 (MFN2); celastrol 2 µM) was 0.21. For the same compound, the “MFN2 band intensity relative to absence of compound” value (mitofusin 2 (MFN2); celastrol 5 µM) was 0.21, the “MFN2 band intensity relative to absence of compound” value (mitofusin 2 (MFN2); celastrol 8 µM) was 0.22 and the “MFN2 band intensity relative to absence of compound” value (mitofusin 2 (MFN2); celastrol 10 µM) was 0.15. The “Expression level of MFN2 (Figure 11C, S8C)” value (mitofusin 2 (MFN2); [6]) was “decreased”, the “DRP1 band intensity relative to absence of compound” value ([3]; celastrol 1 µM) was 0.92 and the “DRP1 band intensity relative to absence of compound” value ([3]; celastrol 2 µM) was 0.81. The “DRP1 band intensity relative to absence of compound” value ([3]; celastrol 5 µM) was 0.44, the “DRP1 band intensity relative to absence of compound” value ([3]; celastrol 8 µM) was 0.20 and the “DRP1 band intensity relative to absence of compound” value ([3]; celastrol 10 µM) was 0.19. The “Expression level of DRP1 (Figure 11C, S8C)” value [3, 6] was “decreased”, the “MFN1 band intensity relative to absence of compound” value (mitofusin 1 (MFN1); celastrol 1 µM) was 0.56 and the “MFN1 band intensity relative to absence of compound” value (mitofusin 1 (MFN1); celastrol 2 µM) was 0.51. The “MFN1 band intensity relative to absence of compound” value (mitofusin 1 (MFN1); celastrol 5 µM) was 0.45, the “MFN1 band intensity relative to absence of compound” value (mitofusin 1 (MFN1); celastrol 8 µM) was 0.43 and the “MFN1 band intensity relative to absence of compound” value (mitofusin 1 (MFN1); celastrol 10 µM) was 0.37. For the same compound, the “Expression level of MFN1 (Figure 11C, S8C)” value (mitofusin 1 (MFN1); [6]) was “decreased”, the “Morphological change by TEM” value (Jurkat cells [4]) was “cytoplasmic vacuolization” and the “Overlap of MitoTracker Green and ER-Tracker Red emission (mitochondria-ER membrane fusion)” value (Jurkat cells [5]) was “negligible”.

With `CN1C(=O)C(Cc2c[nH]c3ccccc23)NC1=S` (stereo not shown) [necrostatin-1] the “Effect of PCD inhibitor” value (Jurkat cells [1]) was “negligible inhibition”.

In the case of “Benzyloxycarbonyl-Val-Ala-Asp(OMe) fluoromethylketone [Z-VAD-fmk]”, the “Effect of PCD inhibitor” value (Jurkat cells [1]) is reported as “weakly inhibited”.

— PMC9022229, “Induction of Paraptosis by Cyclometalated Iridium Complex-Peptide Hybrids and CGP37157 via a Mitochondrial Ca^2+ Overload Triggered by Membrane Fusion between Mitochondria and the Endoplasmic Reticulum” (Biochemistry, 2022)
